Results: patent US20260138961A1, “MODULATORS OF MITOCHONDRIAL DNA REPLICATION” (Pretzel Therapeutics, Inc., priority 2022, published 2026)

target: T1, POLγA:A467T (Homo sapiens, UniProt P54098, A467T); assay: DNA polymerization assay, POLγA:A467T mutant; format: biochemical; conditions: stimulation of polymerase activity, primed M13mp18 ssDNA, 37° C. 2 hours; read-out: A467T AC50
T1 sequence (P54098 1-1239 A467T): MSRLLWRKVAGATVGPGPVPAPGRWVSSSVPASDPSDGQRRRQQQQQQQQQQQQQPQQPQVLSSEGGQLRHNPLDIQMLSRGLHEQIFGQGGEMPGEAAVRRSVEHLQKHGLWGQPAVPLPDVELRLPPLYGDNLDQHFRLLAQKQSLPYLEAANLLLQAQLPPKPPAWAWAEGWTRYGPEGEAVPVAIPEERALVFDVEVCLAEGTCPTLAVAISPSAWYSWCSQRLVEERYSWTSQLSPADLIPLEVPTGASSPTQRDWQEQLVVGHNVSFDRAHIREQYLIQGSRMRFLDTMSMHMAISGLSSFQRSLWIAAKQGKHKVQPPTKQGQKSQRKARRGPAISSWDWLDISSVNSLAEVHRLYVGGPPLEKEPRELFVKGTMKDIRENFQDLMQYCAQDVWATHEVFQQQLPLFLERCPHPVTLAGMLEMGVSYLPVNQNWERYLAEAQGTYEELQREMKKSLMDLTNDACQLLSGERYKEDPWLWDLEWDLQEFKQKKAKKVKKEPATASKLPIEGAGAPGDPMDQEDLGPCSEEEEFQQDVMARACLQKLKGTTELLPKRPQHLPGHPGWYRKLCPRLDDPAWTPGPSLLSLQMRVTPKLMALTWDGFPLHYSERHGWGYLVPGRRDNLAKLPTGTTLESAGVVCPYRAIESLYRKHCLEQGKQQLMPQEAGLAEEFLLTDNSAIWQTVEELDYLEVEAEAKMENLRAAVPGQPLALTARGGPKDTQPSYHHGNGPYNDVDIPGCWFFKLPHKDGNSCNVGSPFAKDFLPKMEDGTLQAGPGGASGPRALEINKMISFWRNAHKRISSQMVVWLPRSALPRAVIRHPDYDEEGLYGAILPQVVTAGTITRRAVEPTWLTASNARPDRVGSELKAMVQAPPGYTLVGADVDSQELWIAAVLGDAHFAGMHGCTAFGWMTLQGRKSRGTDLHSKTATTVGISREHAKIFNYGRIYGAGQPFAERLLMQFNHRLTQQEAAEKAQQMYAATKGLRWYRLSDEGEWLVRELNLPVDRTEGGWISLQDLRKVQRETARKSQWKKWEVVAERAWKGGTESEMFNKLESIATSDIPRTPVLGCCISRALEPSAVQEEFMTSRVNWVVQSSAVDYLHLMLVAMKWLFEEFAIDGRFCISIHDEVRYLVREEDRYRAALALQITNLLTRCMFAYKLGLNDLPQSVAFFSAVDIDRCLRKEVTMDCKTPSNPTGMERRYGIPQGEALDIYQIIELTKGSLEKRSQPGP
T1 sequence (Q9UHN1 1-485 partner): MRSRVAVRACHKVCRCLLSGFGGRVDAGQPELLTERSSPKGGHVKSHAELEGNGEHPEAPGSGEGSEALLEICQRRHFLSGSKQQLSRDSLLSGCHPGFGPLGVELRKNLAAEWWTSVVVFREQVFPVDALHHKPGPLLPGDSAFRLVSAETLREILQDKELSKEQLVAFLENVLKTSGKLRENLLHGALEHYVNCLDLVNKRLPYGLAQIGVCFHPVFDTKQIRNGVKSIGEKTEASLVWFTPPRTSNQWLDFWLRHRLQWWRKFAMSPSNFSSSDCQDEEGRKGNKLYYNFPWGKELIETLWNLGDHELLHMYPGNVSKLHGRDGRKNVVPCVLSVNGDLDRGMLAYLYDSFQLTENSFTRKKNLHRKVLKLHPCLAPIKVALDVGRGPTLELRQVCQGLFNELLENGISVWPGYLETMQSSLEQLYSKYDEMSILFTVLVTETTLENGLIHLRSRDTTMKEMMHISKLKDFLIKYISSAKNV

AC50 [µM]	SMILES
> 100	Cc1cnc(-c2ccc(NS(=O)(=O)c3cc(C)c(Cl)cc3C)cc2)s1 [Example 83, 4-chloro-2,5-dimethyl-N-(4-(5-methylthiazol-2-yl)phenyl)benzenesulfonamide]
> 100	Cc1cc(S(=O)(=O)Nc2ccc(-c3ncc(CN(C)C)s3)cc2)c(C)cc1Cl [Example 86, 4-chloro-N-(4-(5-((dimethylamino)methyl)thiazol-2-yl)phenyl)-2,5-dimethylbenzenesulfonamide]
> 100	Cc1cnc(-c2cccc(S(=O)(=O)Nc3cc(C)c(Cl)cc3C)c2)s1 [Example 78, N-(4-chloro-2,5-dimethylphenyl)-3-(5-methylthiazol-2-yl)benzenesulfonamide]
> 100	Cc1cc(S(=O)(=O)Nc2cccc(-c3ncc(C(=O)O)s3)c2)c(C)cc1Cl [Example 90, 2-(3-((4-chloro-2,5-dimethylphenyl)sulfonamido)phenyl) thiazole-5-carboxylic acid]
> 100	COC(=O)c1cnc(-c2cccc(NS(=O)(=O)c3cc(C)c(Cl)cc3C)c2)s1 [Example 88, methyl 2-(3-((4-chloro-2,5-dimethylphenyl)sulfonamido)phenyl) thiazole-5-carboxylate]
8	Cc1cc(S(=O)(=O)Nc2cccc(-c3ncc(CO)s3)c2)c(C)cc1Cl [Example 89, 4-chloro-N-(3-(5-(hydroxymethyl)thiazol-2-yl)phenyl)-2,5-dimethylbenzenesulfonamide]
3	Cc1cc(S(=O)(=O)Nc2cccc(-c3ncc(C4CC4)s3)c2)c(C)cc1Cl [Example 76, 4-chloro-N-(3-(5-cyclopropylthiazol-2-yl)phenyl)-2,5-dimethylbenzenesulfonamide]
16	Cc1nc2ccc(NS(=O)(=O)c3cc(C)c(Cl)cc3C)cc2s1 [Example 73, 4-chloro-2,5-dimethyl-N-(2-methylbenzo[d]thiazol-6-yl)benzenesulfonamide]
> 100	Cc1cnc(-c2ccccc2NS(=O)(=O)c2cc(C)c(Cl)cc2C)s1 [Example 79, 4-chloro-2,5-dimethyl-N-(2-(5-methylthiazol-2-yl)phenyl)benzenesulfonamide]

More lines, now with the values behind:

SMILES	AC50 [µM]
Cc1cc(S(=O)(=O)NC2CCOc3c(Cl)cccc32)c(C)cc1Cl (stereo not shown) [Example 82, 4-chloro-N-(8-chlorochroman-4-yl)-2,5-dimethylbenzenesulfonamide]	> 100
Cc1cc(S(=O)(=O)Nc2csc(-c3ccccc3)n2)c(C)cc1Cl [Example 81, 4-chloro-2,5-dimethyl-N-(2-phenylthiazol-4-yl)benzenesulfonamide]	3
Cc1nc2cc(NS(=O)(=O)c3cc(C)c(Cl)cc3C)ccc2o1 [Example 75, 4-chloro-2,5-dimethyl-N-(2-methylbenzo[d]oxazol-5-yl)benzenesulfonamide]	> 100
Cc1nc2cccc(NS(=O)(=O)c3cc(C)c(Cl)cc3C)c2s1 [Example 85, 4-chloro-2,5-dimethyl-N-(2-methylbenzo[d]thiazol-7-yl)benzenesulfonamide]	> 100
Cc1cc(S(=O)(=O)Nc2ccccc2-c2ncco2)c(C)cc1Cl [Example 77, 4-chloro-2,5-dimethyl-N-(2-(oxazol-2-yl)phenyl)benzenesulfonamide]	> 100
Cc1cc(S(=O)(=O)Nc2ccc3ccn(C)c3c2)c(C)cc1Cl [Example 72, 4-chloro-2,5-dimethyl-N-(1-methyl-1H-indol-6-yl)benzenesulfonamide]	37
Cc1csc(-c2ccccc2NS(=O)(=O)c2cc(C)c(Cl)cc2C)n1 [Example 80, 4-chloro-2,5-dimethyl-N-(2-(4-methylthiazol-2-yl)phenyl)benzenesulfonamide]	> 100
Cc1cc(S(=O)(=O)Nc2ccc3nc(-c4ccccc4)sc3c2)c(C)cc1Cl [Example 74, 4-chloro-2,5-dimethyl-N-(2-phenylbenzo[d]thiazol-6-yl)benzenesulfonamide]	> 100
Cc1cc(S(=O)(=O)Nc2cc(-c3ccccc3)no2)c(C)cc1Cl [Example 84, 4-chloro-2,5-dimethyl-N-(3-phenylisoxazol-5-yl)benzenesulfonamide]	> 100
Cc1cc(S(=O)(=O)Nc2cccc(C(=O)N3CCCN(C(=O)C(C)C)CC3)c2)c(C)cc1Cl [Example 91, 4-chloro-N-(3-(4-isobutyryl-1,4-diazepane-1-carbonyl)phenyl)-2,5-dimethylbenzenesulfonamide]	> 100
